Tested on: K98450-129-R-PDC complex spheroid growth, percent test/control
Experiment: Anticancer human tumor K98450-129-R-PDC patient-derived colon adenocarcinoma cell line growth inhibition [RAS]
Conditions: for IC50: curve of first compound; for viability, T/C: stronger effect = lower value; active = viability on the fitted dose curve at most 10% of control; inactive = the rest
Summary of the method: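 Multi-cell-type spheroids: tumor cells plus HUVEC endothelial cells and mesenchymal stem cells. RAS-pathway inhibitors were combined with targeted agents, each dosed in half-log steps down from clinical Cmax, or from 10 microM when Cmax was unknown.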

[1] = second compound 0.00316 µM, first compound 0.0316 µM
[2] = second compound 0.00316 µM, first compound 0.1 µM
[3] = second compound 0.00316 µM, first compound 0.316 µM
[4] = second compound 0.00316 µM, first compound 1 µM
[5] = second compound 0.00316 µM, first compound 3.16 µM
[6] = second compound 0.00316 µM, first compound 10 µM
[7] = second compound 0.01 µM, first compound 0.0316 µM
[8] = second compound 0.01 µM, first compound 0.1 µM
[9] = second compound 0.01 µM, first compound 0.316 µM
[10] = second compound 0.01 µM, first compound 1 µM
[11] = second compound 0.01 µM, first compound 3.16 µM
[12] = second compound 0.01 µM, first compound 10 µM
[13] = second compound 0.0316 µM, first compound 0.0316 µM
[14] = second compound 0.0316 µM, first compound 0.1 µM
[15] = second compound 0.0316 µM, first compound 0.316 µM
[16] = second compound 0.0316 µM, first compound 1 µM
[17] = second compound 0.0316 µM, first compound 3.16 µM
[18] = second compound 0.0316 µM, first compound 10 µM
[19] = second compound 0.1 µM, first compound 0.0316 µM
[20] = second compound 0.1 µM, first compound 0.1 µM
[21] = second compound 0.1 µM, first compound 0.316 µM
[22] = second compound 0.1 µM, first compound 1 µM
[23] = second compound 0.1 µM, first compound 3.16 µM
[24] = second compound 0.1 µM, first compound 10 µM
[25] = second compound 0.316 µM, first compound 0.0316 µM
[26] = second compound 0.316 µM, first compound 0.1 µM
[27] = second compound 0.316 µM, first compound 0.316 µM
[28] = second compound 0.316 µM, first compound 1 µM
[29] = second compound 0.316 µM, first compound 3.16 µM
[30] = second compound 0.316 µM, first compound 10 µM
[31] = second compound 1 µM, first compound 0.0316 µM
[32] = second compound 1 µM, first compound 0.1 µM
[33] = second compound 1 µM, first compound 0.316 µM
[34] = second compound 1 µM, first compound 1 µM
[35] = second compound 1 µM, first compound 3.16 µM
[36] = second compound 1 µM, first compound 10 µM
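Note: spheroids exposed to agents for seven days before the viability readout.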
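Throughout, for viability, T/C: luminescence used as a proxy for viable cell amount.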

CC(=O)OC12COC1CC(O)C1(C)C(=O)C(O)C3=C(C)C(OC(=O)C(O)C(NC(=O)OC(C)(C)C)c4ccccc4)CC(O)(C(OC(=O)c4ccccc4)C21)C3(C)C (stereo not drawn) + C=CC(=O)N1CCN(c2nc(OCC3CCCN3C)nc3c(F)c(-c4nc(N)cc(C)c4C(F)(F)F)c(Cl)cc23)C(C)C1
inactive: viability, T/C [1] 91.4% | viability, T/C [2] 83.6% | viability, T/C [3] 44.3% | viability, T/C [4] 27.3% | viability, T/C [5] 23.6% | viability, T/C [6] 22.6% | viability, T/C [7] 88.2% | viability, T/C [8] 83.1% | viability, T/C [9] 35.4% | viability, T/C [10] 22.8% | viability, T/C [11] 20.8% | viability, T/C [12] 19.8% | viability, T/C [13] 71.7% | viability, T/C [14] 62.4% | viability, T/C [15] 27.7% | viability, T/C [16] 17.4% | viability, T/C [17] 16.7% | viability, T/C [18] 15.6% | viability, T/C [19] 50% | viability, T/C [20] 38.4% | viability, T/C [21] 16.3% | viability, T/C [22] 14.6% | viability, T/C [23] 14% | viability, T/C [24] 14.3% | viability, T/C [25] 35.4% | viability, T/C [26] 26.4% | viability, T/C [27] 14% | viability, T/C [28] 12.4% | viability, T/C [29] 12.4% | viability, T/C [30] 12.2% | viability, T/C [31] 26.3% | viability, T/C [32] 18.5% | viability, T/C [33] 13.7% | viability, T/C [34] 12.7% | viability, T/C [35] 12.4% | viability, T/C [36] 13.4%
223 nM: IC50 (second compound 0.01 µM)
270 nM: IC50 (second compound 0.00316 µM)
151 nM: IC50 (second compound 0.0316 µM)
< 31.6 nM: IC50 (second compound 0.1 µM) | IC50 (second compound 0.316 µM) | IC50 (second compound 1 µM)

CCc1c2c(nc3ccc(O)cc13)-c1cc3c(c(=O)n1C2)COC(=O)[C@]3(O)CC + C=CC(=O)N1CCN(c2nc(OCC3CCCN3C)nc3c(F)c(-c4nc(N)cc(C)c4C(F)(F)F)c(Cl)cc23)C(C)C1
7 nM: IC50 (second compound 0.0316 µM)
3.26 nM: IC50 (second compound 0.1 µM)
< 0.949 nM: IC50 (second compound 0.316 µM) | IC50 (second compound 1 µM)
16.6 nM: IC50 (second compound 0.01 µM)
active: viability, T/C (second compound 1 µM, first compound 0.3 µM) 8.49%
inactive: viability, T/C (second compound 0.00316 µM, first compound 0.000949 µM) 93.5% | viability, T/C (second compound 0.00316 µM, first compound 0.003 µM) 87.7% | viability, T/C (second compound 0.00316 µM, first compound 0.00949 µM) 68.1% | viability, T/C (second compound 0.00316 µM, first compound 0.03 µM) 49.7% | viability, T/C (second compound 0.00316 µM, first compound 0.0949 µM) 34.1% | viability, T/C (second compound 0.00316 µM, first compound 0.3 µM) 27.6% | viability, T/C (second compound 0.01 µM, first compound 0.000949 µM) 86.7% | viability, T/C (second compound 0.01 µM, first compound 0.003 µM) 76.1% | viability, T/C (second compound 0.01 µM, first compound 0.00949 µM) 60.6% | viability, T/C (second compound 0.01 µM, first compound 0.03 µM) 39.1% | viability, T/C (second compound 0.01 µM, first compound 0.0949 µM) 29.2% | viability, T/C (second compound 0.01 µM, first compound 0.3 µM) 23.6% | viability, T/C (second compound 0.0316 µM, first compound 0.000949 µM) 74.5% | viability, T/C (second compound 0.0316 µM, first compound 0.003 µM) 63.8% | viability, T/C (second compound 0.0316 µM, first compound 0.00949 µM) 46.1% | viability, T/C (second compound 0.0316 µM, first compound 0.03 µM) 24.1% | viability, T/C (second compound 0.0316 µM, first compound 0.0949 µM) 20.6% | viability, T/C (second compound 0.0316 µM, first compound 0.3 µM) 18% | viability, T/C (second compound 0.1 µM, first compound 0.000949 µM) 54.6% | viability, T/C (second compound 0.1 µM, first compound 0.003 µM) 53.3% | viability, T/C (second compound 0.1 µM, first compound 0.00949 µM) 33% | viability, T/C (second compound 0.1 µM, first compound 0.03 µM) 20.3% | viability, T/C (second compound 0.1 µM, first compound 0.0949 µM) 16.7% | viability, T/C (second compound 0.1 µM, first compound 0.3 µM) 11.7% | viability, T/C (second compound 0.316 µM, first compound 0.000949 µM) 38.1% | viability, T/C (second compound 0.316 µM, first compound 0.003 µM) 35.4% | viability, T/C (second compound 0.316 µM, first compound 0.00949 µM) 25.4% | viability, T/C (second compound 0.316 µM, first compound 0.03 µM) 16.6% | viability, T/C (second compound 0.316 µM, first compound 0.0949 µM) 15% | viability, T/C (second compound 0.316 µM, first compound 0.3 µM) 9.83% | viability, T/C (second compound 1 µM, first compound 0.000949 µM) 31.7% | viability, T/C (second compound 1 µM, first compound 0.003 µM) 30.3% | viability, T/C (second compound 1 µM, first compound 0.00949 µM) 23.6% | viability, T/C (second compound 1 µM, first compound 0.03 µM) 18.9% | viability, T/C (second compound 1 µM, first compound 0.0949 µM) 14.1%
28.1 nM: IC50 (second compound 0.00316 µM)

NC1c2ccccc2OC12CCN(c1cnc3c(N4CCCc5ncccc54)n[nH]c3n1)CC2 (stereo not drawn) + C=CC(=O)N1CCN(c2nc(OCC3CCCN3C)nc3c(F)c(-c4nc(N)cc(C)c4C(F)(F)F)c(Cl)cc23)C(C)C1
58.6 nM: IC50 (second compound 0.00316 µM)
active: viability, T/C [3] 8.4% | viability, T/C [4] 7.7% | viability, T/C [5] 6.2% | viability, T/C [6] 4.82% | viability, T/C [9] 7.99% | viability, T/C [10] 7.31% | viability, T/C [11] 6.81% | viability, T/C [12] 4.84% | viability, T/C [15] 8.19% | viability, T/C [16] 7.23% | viability, T/C [17] 5.99% | viability, T/C [18] 4.9% | viability, T/C [20] 8.86% | viability, T/C [21] 8.05% | viability, T/C [22] 6.93% | viability, T/C [23] 6.33% | viability, T/C [24] 4.82% | viability, T/C [26] 8.75% | viability, T/C [27] 8.02% | viability, T/C [28] 6.49% | viability, T/C [29] 6.35% | viability, T/C [30] 5.02% | viability, T/C [32] 9.4% | viability, T/C [33] 8.01% | viability, T/C [34] 6.8% | viability, T/C [35] 6.75% | viability, T/C [36] 5.01%
< 31.6 nM: IC50 (second compound 0.01 µM) | IC50 (second compound 0.0316 µM) | IC50 (second compound 0.1 µM) | IC50 (second compound 0.316 µM) | IC50 (second compound 1 µM)
inactive: viability, T/C [1] 71.8% | viability, T/C [2] 31.1% | viability, T/C [7] 48.1% | viability, T/C [8] 13% | viability, T/C [13] 16.9% | viability, T/C [14] 10.2% | viability, T/C [19] 12.3% | viability, T/C [25] 10.9% | viability, T/C [31] 10.8%

Nc1ccn(C2OC(CO)C(O)C2(F)F)c(=O)n1 (stereo not drawn) + C=CC(=O)N1CCN(c2nc(OCC3CCCN3C)nc3c(F)c(-c4nc(N)cc(C)c4C(F)(F)F)c(Cl)cc23)C(C)C1
5.71 nM: IC50 (second compound 0.1 µM)
33.7 nM: IC50 (second compound 0.01 µM)
57.9 nM: IC50 (second compound 0.00316 µM)
inactive: viability, T/C (second compound 0.00316 µM, first compound 0.00316 µM) 91.3% | viability, T/C (second compound 0.00316 µM, first compound 0.01 µM) 86.3% | viability, T/C [1] 59.6% | viability, T/C [2] 40.5% | viability, T/C [3] 31.7% | viability, T/C [4] 25.8% | viability, T/C (second compound 0.01 µM, first compound 0.00316 µM) 91% | viability, T/C (second compound 0.01 µM, first compound 0.01 µM) 76.8% | viability, T/C [7] 49.1% | viability, T/C [8] 34.8% | viability, T/C [9] 28.5% | viability, T/C [10] 22.8% | viability, T/C (second compound 0.0316 µM, first compound 0.00316 µM) 68.4% | viability, T/C (second compound 0.0316 µM, first compound 0.01 µM) 59.5% | viability, T/C [13] 34.1% | viability, T/C [14] 22.6% | viability, T/C [15] 18.5% | viability, T/C [16] 16.3% | viability, T/C (second compound 0.1 µM, first compound 0.00316 µM) 57.5% | viability, T/C (second compound 0.1 µM, first compound 0.01 µM) 43% | viability, T/C [19] 24.4% | viability, T/C [20] 17.7% | viability, T/C [21] 15.2% | viability, T/C [22] 14.7% | viability, T/C (second compound 0.316 µM, first compound 0.00316 µM) 41.5% | viability, T/C (second compound 0.316 µM, first compound 0.01 µM) 38.6% | viability, T/C [25] 21.8% | viability, T/C [26] 16.4% | viability, T/C [27] 14.2% | viability, T/C [28] 12.8% | viability, T/C (second compound 1 µM, first compound 0.00316 µM) 36.2% | viability, T/C (second compound 1 µM, first compound 0.01 µM) 25.1% | viability, T/C [31] 18.8% | viability, T/C [32] 16.9% | viability, T/C [33] 14.3% | viability, T/C [34] 14.4%
15.3 nM: IC50 (second compound 0.0316 µM)
< 3.16 nM: IC50 (second compound 0.316 µM) | IC50 (second compound 1 µM)

Reference: PubChem BioAssay AID2060891 (Molecular Pharmacology Branch, DTP, NCI, 2025)
